In data set [1] the target is T1, Mitogen-activated protein kinase kinase kinase 11 (Homo sapiens, UniProt Q16584). The data set can be described thus: Inhibition of human MLK3 by ATP-competitive binding assay.
Target sequence in this assay (Q16584 whole entry): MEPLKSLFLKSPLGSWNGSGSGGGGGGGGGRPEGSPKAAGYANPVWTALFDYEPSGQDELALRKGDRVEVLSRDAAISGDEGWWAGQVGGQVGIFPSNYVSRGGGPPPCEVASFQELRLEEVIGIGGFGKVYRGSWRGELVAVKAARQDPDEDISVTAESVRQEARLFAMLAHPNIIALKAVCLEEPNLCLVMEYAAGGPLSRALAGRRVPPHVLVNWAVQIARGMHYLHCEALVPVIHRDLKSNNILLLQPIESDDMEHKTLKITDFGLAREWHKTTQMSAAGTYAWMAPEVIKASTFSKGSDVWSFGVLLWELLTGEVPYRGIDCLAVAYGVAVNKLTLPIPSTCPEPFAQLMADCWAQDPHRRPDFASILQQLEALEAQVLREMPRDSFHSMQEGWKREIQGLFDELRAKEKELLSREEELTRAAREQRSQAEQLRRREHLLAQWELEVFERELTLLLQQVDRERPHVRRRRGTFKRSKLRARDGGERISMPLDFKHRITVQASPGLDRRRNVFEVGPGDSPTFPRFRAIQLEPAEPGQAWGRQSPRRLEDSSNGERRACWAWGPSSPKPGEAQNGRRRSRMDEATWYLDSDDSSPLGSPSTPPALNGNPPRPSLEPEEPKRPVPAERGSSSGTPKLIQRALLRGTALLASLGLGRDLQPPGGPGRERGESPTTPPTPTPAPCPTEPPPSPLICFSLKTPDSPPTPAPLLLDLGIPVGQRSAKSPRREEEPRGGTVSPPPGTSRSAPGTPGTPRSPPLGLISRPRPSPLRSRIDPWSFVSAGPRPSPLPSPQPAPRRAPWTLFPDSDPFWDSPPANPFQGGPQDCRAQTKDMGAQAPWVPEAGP
Data set [2] in a line: Permeability of the compound by PAMPA method. It is filed as ADME. The note with it: read-out: Peff.
Data set [3] can be described thus: Lipophilicity, LogP of the compound. It is filed as physicochemical. The settings on record: octanol/water.
The target of data set [4] is T1, Mitogen-activated protein kinase kinase kinase 11. Kind of data set: Inhibition of human MLK3 at 0.5 uM by ATP-competitive binding assay relative to control.
Target sequence in this assay (Q16584 whole entry, looked up): as the sequence (Q16584 whole entry) above

For orientation: IC50 means the point on the concentration scale where inhibition reaches its midpoint. A lower IC50 goes with inhibition by little substance. For orientation: logP means the decadic logarithm of the partition coefficient of the neutral form, usually between octanol and water. Low readings indicate a more hydrophilic compound, high ones a more lipophilic compound. Usually inhibition stands for the drop in the measured response relative to a control, in per cent.

The molecule `CCS(=O)(=O)N1CC[C@H](Nc2c(Br)cnc3[nH]c(-c4cc(C)n(-c5cccc(C(=O)N6CCOCC6)c5)c4C)nc23)C1` came in with a concentration for half-maximal inhibition (IC50) in data set [1] of 6 nM. Further, the Papp in data set [2] amounted to 15.2 ×10⁻⁶ cm/s. Further, in data set [3], the logP came to 3.69.
Take `CCS(=O)(=O)N1CC[C@H](Nc2c(Br)cnc3[nH]c(-c4cc(C)n(-c5cc(C(=O)N6CCN(C)CC6)ccc5C)c4C)nc23)C1`: the Papp in data set [2] was 35.7 ×10⁻⁶ cm/s. In data set [3], this molecule came in with a logP of 5.06.
For the molecule `CCS(=O)(=O)N1CC[C@H](Nc2c(Br)cnc3[nH]c(-c4cc(C)n(-c5cc(NC(=O)CN6CCN(C)CC6)ccc5C)c4C)nc23)C1`, the logP in data set [3] was 5.89.
As for `CCS(=O)(=O)N1CC[C@H](Nc2c(Br)cnc3[nH]c(-c4cc(C)n(-c5ccc(C(=O)NCCN(C)C)cc5)c4C)nc23)C1`, the Papp in data set [2] was 2.53 ×10⁻⁶ cm/s. In data set [3], this molecule came in with a log partition coefficient (logP) of 3.86.
On to `O=C1Nc2ccc3ncsc3c2/C1=C/c1c[nH]cn1`, for which the IC50 in data set [1] amounted to 144 nM.
As for `CCS(=O)(=O)N1CC[C@H](Nc2c(Br)cnc3[nH]c(-c4cc(C)n(-c5ccc(NC(=O)CN(C)C)cc5C)c4C)nc23)C1`, the Papp in data set [2] stood at 48.7 ×10⁻⁶ cm/s. This molecule also displayed a logP in data set [3] of 4.53.
In the case of `CC(C)c1nn(C)cc1-c1nc2cc(Br)cnc2[nH]1`, the inhibition in data set [4] was determined as 21%.
`CCS(=O)(=O)N1CC[C@H](Nc2c(Br)cnc3[nH]c(-c4cc(C)n(-c5ccc(C(=O)N6CCOCC6)cc5)c4C)nc23)C1` yielded an IC50 in data set [1] of 6 nM. The Papp in data set [2] came to 13.1 ×10⁻⁶ cm/s. The logP in data set [3] came out at 3.92.
As for `CCS(=O)(=O)N1CC[C@H](Nc2c(Br)cnc3nc(-c4cc(C)n(-c5cccc(C(=O)NCCN(C)C)c5C)c4C)[nH]c23)C1`, the Papp in data set [2] worked out at 21.2 ×10⁻⁶ cm/s. The molecule also yielded a logP in data set [3] of 4.86.
As to `CCS(=O)(=O)N1CC[C@H](Nc2c(Br)cnc3nc(-c4cc(C)n(-c5cccc(NC(=O)CN(C)C)c5C)c4C)[nH]c23)C1`, in data set [2], the Papp is 55.9 ×10⁻⁶ cm/s. In addition, the logP in data set [3] came to 5.17.
In data set [1], `CCS(=O)(=O)N1CC[C@H](Nc2c(Br)cnc3[nH]c(-c4cc(C)n(-c5ccc(C(=O)N6CCN(C)CC6)cc5C)c4C)nc23)C1` returned an IC50 of 25 nM. The Papp in data set [2] was 13.9 ×10⁻⁶ cm/s. The molecule also gave a logP in data set [3] of 5.16.
For the molecule `CCS(=O)(=O)N1CC[C@H](Nc2c(Br)cnc3nc(-c4cc(C)n(-c5cccc(NC(=O)CN6CCOCC6)c5C)c4C)[nH]c23)C1`, the Papp in data set [2] stood at 47.8 ×10⁻⁶ cm/s. In data set [3], this molecule came in with a logP of 4.28.
Taken in the same sequence, the figures for `CCS(=O)(=O)N1CC[C@H](Nc2c(Br)cnc3[nH]c(-c4cc(C)n(-c5ccc(C(=O)N(C)CCN(C)C)cc5)c4C)nc23)C1` were 8.91 ×10⁻⁶ cm/s and 3.52.
For the molecule `CCS(=O)(=O)N1CC[C@H](Nc2c(Br)cnc3[nH]c(-c4cc(C)n(-c5cccc(C(=O)NCCN(C)C)c5)c4C)nc23)C1`, in data set [1], the IC50 amounted to 27 nM. The Papp in data set [2] amounted to 3.42 ×10⁻⁶ cm/s. Moreover, the logP in data set [3] was determined as 4.81.

The record behind these values is ChEMBL document CHEMBL5335808, “Design, synthesis of new 3H-imidazo[4,5-b]pyridine derivatives and evaluation of their inhibitory properties as mixed lineage kinase 3 inhibitors” (Bioorg Med Chem Lett, 2024).
